In US8653041B2, “Antibacterial aminoglycoside analogs” (Achaogen, Inc., priority 2010, dated 2014):
Values after ≈ are worked out from the molar mass of the structure shown. Where two headings read alike, the source gives them in different places.

What was measured:
Pseudomonas aeruginosa = assay: MIC, CLSI broth microdilution, Pseudomonas aeruginosa panel; format: cell-based
Protocol: (§1) Minimum inhibitory concentrations (MIC) were determined by reference Clinical and Laboratory Standards Institute (CLSI) broth microdilution methods per M7-A7 [2006]. Quality control ranges utilizing E. coli ATCC 25922, P. aeruginosa ATCC 27853 and S. aureus ATCC 29213, and interpretive criteria for comparator agents were as published in CLSI M100-S17 [2007]. Briefly, serial two-fold dilutions of the test compounds were prepared at 2× concentration in Mueller Hinton Broth. The compound dilutions were mixed in 96-well assay plates in a 1:1 ratio with bacterial inoculum. The inoculum was prepared by suspension of a colony from an agar plate that was prepared the previous day. Bacteria were suspended in sterile saline and added to each assay plate to obtain a final concentration of 5×10^5 CFU/mL. The plates were incubated at 35 C for 20 hours in ambient air.
The MIC panel presented in Table 1 contains 27 isolates of Pseudomonas aeruginosa: strains 1-22 are clinical isolates from around the world collected between 2004-2007 which contain representative resistance mechanisms commonly found in Pseudomonas, such as the AAC(6′)-I, AAC(6′)-II, APH(3′)-IIb, ANT(2″)-I, and perm/efflux; strains 23-27 are susceptible.

Acinetobacter baumannii = assay: MIC, CLSI broth microdilution, Acinetobacter baumannii panel; format: cell-based; conditions: Acinetobacter baumannii, read-out: MIC
Protocol: as §1
The MIC panel presented in Table 2 contains 29 isolates of Acinetobacter baumannii: strains 1-24 are clinical isolates from around the world collected between 2004-2007 which contain representative resistance mechanisms commonly found in Acinetobacter baumannii, such as AAC(3)-I and II, AAC(6′)-I, ANT(2″)-I, APH(3′)-VI, and perm/efflux; strains 25-29 are susceptible.

Compound: NCC[C@H](O)C(=O)N[C@@H]1C[C@H](N)[C@@H](O[C@H]2O[C@H](CNCCO)[C@@H](O)C[C@H]2N)[C@H](O[C@@H]2O[C@H](CO)[C@@H](O[C@H]3O[C@@H](CN)[C@@H](O)[C@H](O)[C@H]3N)[C@H]2O)[C@H]1O [Compound 18]
- MIC (Pseudomonas aeruginosa; Pseudomonas aeruginosa, P. aeruginosa clinical strain 1 (resistant clinical isolate), read-out: MIC): ≤ 1 µg/mL
- MIC (Pseudomonas aeruginosa; Pseudomonas aeruginosa, P. aeruginosa clinical strain 2 (resistant clinical isolate), read-out: MIC): ≤ 1 µg/mL
- MIC (Pseudomonas aeruginosa; Pseudomonas aeruginosa, P. aeruginosa clinical strain 3 (resistant clinical isolate), read-out: MIC): 1 to 8 µg/mL (≈ 1.34 to 10.8 µM)
- MIC (Pseudomonas aeruginosa; Pseudomonas aeruginosa, P. aeruginosa clinical strain 4 (resistant clinical isolate), read-out: MIC): 1 to 8 µg/mL (≈ 1.34 to 10.8 µM)
- MIC (Pseudomonas aeruginosa; Pseudomonas aeruginosa, P. aeruginosa clinical strain 5 (resistant clinical isolate), read-out: MIC): 1 to 8 µg/mL (≈ 1.34 to 10.8 µM)
- MIC (Pseudomonas aeruginosa; Pseudomonas aeruginosa, P. aeruginosa clinical strain 6 (resistant clinical isolate), read-out: MIC): 1 to 8 µg/mL (≈ 1.34 to 10.8 µM)
- MIC (Pseudomonas aeruginosa; Pseudomonas aeruginosa, P. aeruginosa clinical strain 7 (resistant clinical isolate), read-out: MIC): ≤ 1 µg/mL
- MIC (Pseudomonas aeruginosa; Pseudomonas aeruginosa, P. aeruginosa clinical strain 8 (resistant clinical isolate), read-out: MIC): 8 to 16 µg/mL (≈ 10.8 to 21.5 µM)
- MIC (Pseudomonas aeruginosa; Pseudomonas aeruginosa, P. aeruginosa clinical strain 9 (resistant clinical isolate), read-out: MIC): 1 to 8 µg/mL (≈ 1.34 to 10.8 µM)
- MIC (Pseudomonas aeruginosa; Pseudomonas aeruginosa, P. aeruginosa clinical strain 10 (resistant clinical isolate), read-out: MIC): 8 to 16 µg/mL (≈ 10.8 to 21.5 µM)
- MIC (Pseudomonas aeruginosa; Pseudomonas aeruginosa, P. aeruginosa clinical strain 11 (resistant clinical isolate), read-out: MIC): ≤ 1 µg/mL
- MIC (Pseudomonas aeruginosa; Pseudomonas aeruginosa, P. aeruginosa clinical strain 12 (resistant clinical isolate), read-out: MIC): 1 to 8 µg/mL (≈ 1.34 to 10.8 µM)
- MIC (Pseudomonas aeruginosa; Pseudomonas aeruginosa, P. aeruginosa clinical strain 13 (resistant clinical isolate), read-out: MIC): 16 to 32 µg/mL (≈ 21.5 to 43 µM)
- MIC (Pseudomonas aeruginosa; Pseudomonas aeruginosa, P. aeruginosa clinical strain 14 (resistant clinical isolate), read-out: MIC): 1 to 8 µg/mL (≈ 1.34 to 10.8 µM)
- MIC (Pseudomonas aeruginosa; Pseudomonas aeruginosa, P. aeruginosa clinical strain 15 (resistant clinical isolate), read-out: MIC): 1 to 8 µg/mL (≈ 1.34 to 10.8 µM)
- MIC (Pseudomonas aeruginosa; Pseudomonas aeruginosa, P. aeruginosa clinical strain 16 (resistant clinical isolate), read-out: MIC): 1 to 8 µg/mL (≈ 1.34 to 10.8 µM)
- MIC (Pseudomonas aeruginosa; Pseudomonas aeruginosa, P. aeruginosa clinical strain 17 (resistant clinical isolate), read-out: MIC): 1 to 8 µg/mL (≈ 1.34 to 10.8 µM)
- MIC (Pseudomonas aeruginosa; Pseudomonas aeruginosa, P. aeruginosa clinical strain 18 (resistant clinical isolate), read-out: MIC): 1 to 8 µg/mL (≈ 1.34 to 10.8 µM)
- MIC (Pseudomonas aeruginosa; Pseudomonas aeruginosa, P. aeruginosa clinical strain 19 (resistant clinical isolate), read-out: MIC): 16 to 32 µg/mL (≈ 21.5 to 43 µM)
- MIC (Pseudomonas aeruginosa; Pseudomonas aeruginosa, P. aeruginosa clinical strain 20 (resistant clinical isolate), read-out: MIC): 16 to 32 µg/mL (≈ 21.5 to 43 µM)
- MIC (Pseudomonas aeruginosa; Pseudomonas aeruginosa, P. aeruginosa clinical strain 21 (resistant clinical isolate), read-out: MIC): 8 to 16 µg/mL (≈ 10.8 to 21.5 µM)
- MIC (Pseudomonas aeruginosa; Pseudomonas aeruginosa, P. aeruginosa clinical strain 22 (resistant clinical isolate), read-out: MIC): 1 to 8 µg/mL (≈ 1.34 to 10.8 µM)
- MIC (Pseudomonas aeruginosa; Pseudomonas aeruginosa, P. aeruginosa strain 23 (susceptible), read-out: MIC): ≤ 1 µg/mL
- MIC (Pseudomonas aeruginosa; Pseudomonas aeruginosa, P. aeruginosa strain 24 (susceptible), read-out: MIC): ≤ 1 µg/mL
- MIC (Pseudomonas aeruginosa; Pseudomonas aeruginosa, P. aeruginosa strain 25 (susceptible), read-out: MIC): ≤ 1 µg/mL
- MIC (Pseudomonas aeruginosa; Pseudomonas aeruginosa, P. aeruginosa strain 26 (susceptible), read-out: MIC): ≤ 1 µg/mL
- MIC (Pseudomonas aeruginosa; Pseudomonas aeruginosa, P. aeruginosa strain 27 (susceptible), read-out: MIC): ≤ 1 µg/mL
- MIC (Acinetobacter baumannii; A. baumannii clinical strain 1 (resistant clinical isolate)): 1 to 8 µg/mL (≈ 1.34 to 10.8 µM)
- MIC (Acinetobacter baumannii; A. baumannii clinical strain 2 (resistant clinical isolate)): 8 to 16 µg/mL (≈ 10.8 to 21.5 µM)
- MIC (Acinetobacter baumannii; A. baumannii clinical strain 3 (resistant clinical isolate)): 1 to 8 µg/mL (≈ 1.34 to 10.8 µM)
- MIC (Acinetobacter baumannii; A. baumannii clinical strain 4 (resistant clinical isolate)): 16 to 32 µg/mL (≈ 21.5 to 43 µM)
- MIC (Acinetobacter baumannii; A. baumannii clinical strain 5 (resistant clinical isolate)): 1 to 8 µg/mL (≈ 1.34 to 10.8 µM)
- MIC (Acinetobacter baumannii; A. baumannii clinical strain 6 (resistant clinical isolate)): 1 to 8 µg/mL (≈ 1.34 to 10.8 µM)
- MIC (Acinetobacter baumannii; A. baumannii clinical strain 7 (resistant clinical isolate)): ≤ 1 µg/mL
- MIC (Acinetobacter baumannii; A. baumannii clinical strain 8 (resistant clinical isolate)): 1 to 8 µg/mL (≈ 1.34 to 10.8 µM)
- MIC (Acinetobacter baumannii; A. baumannii clinical strain 9 (resistant clinical isolate)): ≤ 1 µg/mL
- MIC (Acinetobacter baumannii; A. baumannii clinical strain 10 (resistant clinical isolate)): 1 to 8 µg/mL (≈ 1.34 to 10.8 µM)
- MIC (Acinetobacter baumannii; A. baumannii clinical strain 11 (resistant clinical isolate)): ≤ 1 µg/mL
- MIC (Acinetobacter baumannii; A. baumannii clinical strain 12 (resistant clinical isolate)): ≤ 1 µg/mL
- MIC (Acinetobacter baumannii; A. baumannii clinical strain 13 (resistant clinical isolate)): ≤ 1 µg/mL
- MIC (Acinetobacter baumannii; A. baumannii clinical strain 14 (resistant clinical isolate)): 1 to 8 µg/mL (≈ 1.34 to 10.8 µM)
- MIC (Acinetobacter baumannii; A. baumannii clinical strain 15 (resistant clinical isolate)): ≤ 1 µg/mL
- MIC (Acinetobacter baumannii; A. baumannii clinical strain 16 (resistant clinical isolate)): 1 to 8 µg/mL (≈ 1.34 to 10.8 µM)
- MIC (Acinetobacter baumannii; A. baumannii clinical strain 17 (resistant clinical isolate)): 1 to 8 µg/mL (≈ 1.34 to 10.8 µM)
- MIC (Acinetobacter baumannii; A. baumannii clinical strain 18 (resistant clinical isolate)): 8 to 16 µg/mL (≈ 10.8 to 21.5 µM)
- MIC (Acinetobacter baumannii; A. baumannii clinical strain 19 (resistant clinical isolate)): 1 to 8 µg/mL (≈ 1.34 to 10.8 µM)
- MIC (Acinetobacter baumannii; A. baumannii clinical strain 20 (resistant clinical isolate)): 8 to 16 µg/mL (≈ 10.8 to 21.5 µM)
- MIC (Acinetobacter baumannii; A. baumannii clinical strain 21 (resistant clinical isolate)): ≤ 1 µg/mL
- MIC (Acinetobacter baumannii; A. baumannii clinical strain 22 (resistant clinical isolate)): 16 to 32 µg/mL (≈ 21.5 to 43 µM)
- MIC (Acinetobacter baumannii; A. baumannii clinical strain 23 (resistant clinical isolate)): ≤ 1 µg/mL
- MIC (Acinetobacter baumannii; A. baumannii clinical strain 24 (resistant clinical isolate)): 16 to 32 µg/mL (≈ 21.5 to 43 µM)
- MIC (Acinetobacter baumannii; A. baumannii strain 25 (susceptible)): ≤ 1 µg/mL
- MIC (Acinetobacter baumannii; A. baumannii strain 26 (susceptible)): 1 to 8 µg/mL (≈ 1.34 to 10.8 µM)
- MIC (Acinetobacter baumannii; A. baumannii strain 27 (susceptible)): ≤ 1 µg/mL
- MIC (Acinetobacter baumannii; A. baumannii strain 28 (susceptible)): ≤ 1 µg/mL
- MIC (Acinetobacter baumannii; A. baumannii strain 29 (susceptible)): ≤ 1 µg/mL

Compound: NC[C@@H]1O[C@H](O[C@H]2[C@@H](O)[C@H](O[C@@H]3[C@@H](O)[C@H](N)C[C@H](N)[C@H]3O[C@H]3O[C@H](CN)[C@@H](O)[C@H](O)[C@H]3N)O[C@@H]2CO)[C@H](N)[C@@H](O)[C@@H]1O [Neo B, neomycin B]
- MIC (Pseudomonas aeruginosa; P. aeruginosa clinical strain 1 (resistant clinical isolate)): E (MIC's greater than or equal to 32.0 μg/mL = E)
- MIC (Pseudomonas aeruginosa; P. aeruginosa clinical strain 2 (resistant clinical isolate)): D (MIC's greater than or equal to 16.0 μg/mL and lower than 32 μg/mL = D)
- MIC (Pseudomonas aeruginosa; P. aeruginosa clinical strain 3 (resistant clinical isolate)): E (MIC's greater than or equal to 32.0 μg/mL = E)
- MIC (Pseudomonas aeruginosa; P. aeruginosa clinical strain 4 (resistant clinical isolate)): E (MIC's greater than or equal to 32.0 μg/mL = E)
- MIC (Pseudomonas aeruginosa; P. aeruginosa clinical strain 5 (resistant clinical isolate)): E (MIC's greater than or equal to 32.0 μg/mL = E)
- MIC (Pseudomonas aeruginosa; P. aeruginosa clinical strain 6 (resistant clinical isolate)): D (MIC's greater than or equal to 16.0 μg/mL and lower than 32 μg/mL = D)
- MIC (Pseudomonas aeruginosa; P. aeruginosa clinical strain 7 (resistant clinical isolate)): C (MIC's greater than or equal to 8 μg/mL and lower than 16.0 μg/mL = C)
- MIC (Pseudomonas aeruginosa; P. aeruginosa clinical strain 8 (resistant clinical isolate)): E (MIC's greater than or equal to 32.0 μg/mL = E)
- MIC (Pseudomonas aeruginosa; P. aeruginosa clinical strain 9 (resistant clinical isolate)): D (MIC's greater than or equal to 16.0 μg/mL and lower than 32 μg/mL = D)
- MIC (Pseudomonas aeruginosa; P. aeruginosa clinical strain 10 (resistant clinical isolate)): E (MIC's greater than or equal to 32.0 μg/mL = E)
- MIC (Pseudomonas aeruginosa; P. aeruginosa clinical strain 11 (resistant clinical isolate)): B (MIC's of greater than 1.0 μg/mL and lower than 8 μg/mL = B)
- MIC (Pseudomonas aeruginosa; P. aeruginosa clinical strain 12 (resistant clinical isolate)): E (MIC's greater than or equal to 32.0 μg/mL = E)
- MIC (Pseudomonas aeruginosa; P. aeruginosa clinical strain 13 (resistant clinical isolate)): E (MIC's greater than or equal to 32.0 μg/mL = E)
- MIC (Pseudomonas aeruginosa; P. aeruginosa clinical strain 14 (resistant clinical isolate)): E (MIC's greater than or equal to 32.0 μg/mL = E)
- MIC (Pseudomonas aeruginosa; P. aeruginosa clinical strain 15 (resistant clinical isolate)): E (MIC's greater than or equal to 32.0 μg/mL = E)
- MIC (Pseudomonas aeruginosa; P. aeruginosa clinical strain 16 (resistant clinical isolate)): E (MIC's greater than or equal to 32.0 μg/mL = E)
- MIC (Pseudomonas aeruginosa; P. aeruginosa clinical strain 17 (resistant clinical isolate)): C (MIC's greater than or equal to 8 μg/mL and lower than 16.0 μg/mL = C)
- MIC (Pseudomonas aeruginosa; P. aeruginosa clinical strain 18 (resistant clinical isolate)): E (MIC's greater than or equal to 32.0 μg/mL = E)
- MIC (Pseudomonas aeruginosa; P. aeruginosa clinical strain 19 (resistant clinical isolate)): E (MIC's greater than or equal to 32.0 μg/mL = E)
- MIC (Pseudomonas aeruginosa; P. aeruginosa clinical strain 20 (resistant clinical isolate)): E (MIC's greater than or equal to 32.0 μg/mL = E)
- MIC (Pseudomonas aeruginosa; P. aeruginosa clinical strain 21 (resistant clinical isolate)): E (MIC's greater than or equal to 32.0 μg/mL = E)
- MIC (Pseudomonas aeruginosa; P. aeruginosa clinical strain 22 (resistant clinical isolate)): E (MIC's greater than or equal to 32.0 μg/mL = E)
- MIC (Pseudomonas aeruginosa; P. aeruginosa strain 23 (susceptible)): B (MIC's of greater than 1.0 μg/mL and lower than 8 μg/mL = B)
- MIC (Pseudomonas aeruginosa; P. aeruginosa strain 24 (susceptible)): B (MIC's of greater than 1.0 μg/mL and lower than 8 μg/mL = B)
- MIC (Pseudomonas aeruginosa; P. aeruginosa strain 25 (susceptible)): B (MIC's of greater than 1.0 μg/mL and lower than 8 μg/mL = B)
- MIC (Pseudomonas aeruginosa; P. aeruginosa strain 26 (susceptible)): C (MIC's greater than or equal to 8 μg/mL and lower than 16.0 μg/mL = C)
- MIC (Pseudomonas aeruginosa; P. aeruginosa strain 27 (susceptible)): B (MIC's of greater than 1.0 μg/mL and lower than 8 μg/mL = B)
